“And” between values parts separate entries of the source, which are not always exact repeats. Equal values may be shown once. Toxic doses and inconclusive results are not listed.
Test system: CD2F1 mice, intracerebral L1210 leukemia, survival T/C
Assay: NCI In Vivo Anticancer Drug Screen. Data for tumor model L1210 Leukemia (intracerebral) in CD2F1 (CDF1) mice
Conditions: higher = longer survival
Experimental: The antitumor activity of compounds was measured in mice bearing transplantable tumors. Survival or tumor size were measured and the results are expressed as the measurement made in the treated group (T) divided by the measurement made in the vehicle treated control group (C). The tumor model used in this assay is L1210 Leukemia (intracerebral) in CD2F1 (CDF1) mice

[1] = endpoint: median survival time, dose: 4.0 mg/kg/injection, schedule: Q01DX005 (ip), vehicle: suspension in saline
[2] = endpoint: median survival time, dose: 8.0 mg/kg/injection, schedule: Q01DX005 (ip), vehicle: suspension in saline
[3] = endpoint: median survival time, dose: 16.0 mg/kg/injection, schedule: Q01DX005 (ip), vehicle: suspension in saline
[4] = endpoint: median survival time, dose: 32.0 mg/kg/injection, schedule: Q01DX005 (ip), vehicle: saline
[5] = endpoint: median survival time, dose: 32.0 mg/kg/injection, schedule: Q01DX005 (ip), vehicle: suspension in saline
[6] = endpoint: mean survival time, dose: 25.0 mg/kg/injection, schedule: Q01DX009 (ip), vehicle: saline
[7] = endpoint: mean survival time, dose: 50.0 mg/kg/injection, schedule: Q01DX009 (ip), vehicle: saline
[8] = endpoint: median survival time, dose: 32.0 mg/kg/injection, schedule: Q01DX005 (ip), vehicle: saline with Tween-80
[9] = endpoint: mean survival time, dose: 200.0 mg/kg/injection, schedule: Q01DX009 (ip), vehicle: saline
[10] = endpoint: median survival time, dose: 16.0 mg/kg/injection, schedule: Q01DX005 (ip), vehicle: saline with Tween-80
[11] = endpoint: median survival time, dose: 64.0 mg/kg/injection, schedule: Q01DX005 (ip), vehicle: saline with Tween-80
[12] = endpoint: median survival time, dose: 128.0 mg/kg/injection, schedule: Q01DX005 (ip), vehicle: saline with Tween-80
[13] = endpoint: mean survival time, dose: 2.5 mg/kg/injection, schedule: Q01DX009 (ip), vehicle: saline

For CCC1=C(c2ccc(OC)cc2)CCC(C(=O)O)C1C (stereo not given), the T/C (endpoint: median survival time, dose: 4.0 mg/kg/injection, schedule: Q01DX005 (ip), vehicle: saline) was 103 % of control, the T/C [1] was 102 % of control and the T/C (endpoint: median survival time, dose: 8.0 mg/kg/injection, schedule: Q01DX005 (ip), vehicle: saline) was 114 % of control. The T/C [2] was 102 % of control, the T/C (endpoint: median survival time, dose: 16.0 mg/kg/injection, schedule: Q01DX005 (ip), vehicle: saline) was 112 % of control and the T/C [3] was 96 % of control. The T/C [4] was 102 % of control and the T/C [5] was 104 % of control.
For CC1(C)N=C(N)N=C(N)N1c1ccc(CCC(=O)Nc2ccc(S(=O)(=O)F)cc2)c(Cl)c1, the T/C (endpoint: mean survival time, dose: 6.25 mg/kg/injection, schedule: Q01DX009 (ip), vehicle: saline) was 94 % of control, the T/C (endpoint: mean survival time, dose: 12.5 mg/kg/injection, schedule: Q01DX009 (ip), vehicle: saline) was 94 % of control and the T/C [6] was 94 % of control. For the same compound, the T/C [7] was 98 % of control.
In the case of CC(C)(CO)COC(=O)NC1=C(N2CC2)C(=O)C(NC(=O)OCC(C)(C)CO)=C(N2CC2)C1=O, the T/C (endpoint: median survival time, dose: 0.75 mg/kg/injection, schedule: Q01DX009 (ip), vehicle: water) is reported as 102 % of control and 105 % of control, the T/C (endpoint: median survival time, dose: 1.5 mg/kg/injection, schedule: Q01DX009 (ip), vehicle: water) is reported as 103 % of control and 108 % of control and the T/C (endpoint: median survival time, dose: 3.0 mg/kg/injection, schedule: Q01DX009 (ip), vehicle: water) is reported as 105 % of control and 110 % of control. For the same compound, the T/C (endpoint: median survival time, dose: 6.0 mg/kg/injection, schedule: Q01DX009 (ip), vehicle: water) was 110 % of control and 113 % of control and the T/C (endpoint: median survival time, dose: 12.0 mg/kg/injection, schedule: Q01DX009 (ip), vehicle: water) was 119 % of control and 113 % of control.
With COc1cc(C[C@H]2c3cc(OC)c(OC)cc3CCN2C)c(Oc2cc3c(cc2OC)-c2c(OC)c(OC)cc4c2[C@H](C3)N(C)CC4)cc1OC the T/C (endpoint: median survival time, dose: 50.0 mg/kg/injection, schedule: Q01DX005 (ip), vehicle: Klucel (hydroxypropylcellulose) (HPC)) was 97 % of control, the T/C (endpoint: median survival time, dose: 100.0 mg/kg/injection, schedule: Q01DX005 (ip), vehicle: Klucel (hydroxypropylcellulose) (HPC)) was 102 % of control and the T/C (endpoint: median survival time, dose: 200.0 mg/kg/injection, schedule: Q01DX005 (ip), vehicle: Klucel (hydroxypropylcellulose) (HPC)) was 94 % of control.
For C[n+]1c2ccccc2nc2c(N)cc(N)cc21, the T/C [1] was 93 % of control and 98 % of control, the T/C [2] was 102 % of control and the T/C [3] was 96 % of control and 98 % of control. The T/C [5] was 96 % of control and 97 % of control.
For CN(Cc1ccccc1)/N=N/c1nc[nH]c1C(N)=O, the T/C [8] was 112 % of control and the T/C (endpoint: median survival time, dose: 512.0 mg/kg/injection, schedule: Q01DX005 (ip), vehicle: saline with Tween-80) was 94 % of control.
O=C(O)CC(NC(=O)CP(=O)(O)O)C(=O)O (stereo not given) was tested, and the T/C [9] was 100 % of control, the T/C (endpoint: mean survival time, dose: 225.0 mg/kg/injection, schedule: Q01DX009 (ip), vehicle: saline) was 108 % of control and the T/C (endpoint: mean survival time, dose: 250.0 mg/kg/injection, schedule: Q01DX009 (ip), vehicle: saline) was 101 % of control.
In the case of CC/C(=C(/CC)c1ccc(O)cc1)c1ccc(O)cc1, the T/C (endpoint: median survival time, dose: 8.0 mg/kg/injection, schedule: Q01DX009 (ip), vehicle: saline) is reported as 104 % of control and 113 % of control, the T/C [10] is reported as 93 % of control and 106 % of control and the T/C (endpoint: median survival time, dose: 16.0 mg/kg/injection, schedule: Q01DX009 (ip), vehicle: saline) is reported as 104 % of control and 113 % of control. The T/C [8] was 93 % of control and 103 % of control, the T/C (endpoint: median survival time, dose: 32.0 mg/kg/injection, schedule: Q01DX009 (ip), vehicle: saline) was 98 % of control and 112 % of control and the T/C [11] was 103 % of control and 116 % of control. For the same compound, the T/C (endpoint: median survival time, dose: 64.0 mg/kg/injection, schedule: Q01DX009 (ip), vehicle: saline) was 105 % of control and 112 % of control, the T/C [12] was 103 % of control and 105 % of control and the T/C (endpoint: median survival time, dose: 256.0 mg/kg/injection, schedule: Q01DX009 (ip), vehicle: saline) was 112 % of control. The T/C (endpoint: median survival time, dose: 512.0 mg/kg/injection, schedule: Q01DX009 (ip), vehicle: saline) was 86 % of control.
In the case of CN(C)N=Nc1ccc(C(=O)O)cc1, the T/C (endpoint: mean survival time, dose: 10.0 mg/kg/injection, schedule: Q01DX007 (ip), vehicle: DMSO) is reported as 91 % of control, the T/C (endpoint: mean survival time, dose: 20.0 mg/kg/injection, schedule: Q01DX007 (ip), vehicle: DMSO) is reported as 96 % of control and the T/C [6] is reported as 104 % of control. The T/C (endpoint: mean survival time, dose: 40.0 mg/kg/injection, schedule: Q01DX007 (ip), vehicle: DMSO) was 108 % of control, the T/C [7] was 119 % of control and the T/C (endpoint: mean survival time, dose: 80.0 mg/kg/injection, schedule: Q01DX007 (ip), vehicle: DMSO) was 122 % of control. The T/C [9] was 113 % of control.
With NC(=O)CNC1=C(N2CC2)C(=O)C(NCC(N)=O)=C(N2CC2)C1=O the T/C [13] was 101 % of control and 116 % of control, the T/C (endpoint: mean survival time, dose: 5.0 mg/kg/injection, schedule: Q01DX009 (ip), vehicle: saline) was 110 % of control and 113 % of control and the T/C (endpoint: mean survival time, dose: 10.0 mg/kg/injection, schedule: Q01DX009 (ip), vehicle: saline) was 105 % of control and 116 % of control. The T/C (endpoint: mean survival time, dose: 15.0 mg/kg/injection, schedule: Q01DX009 (ip), vehicle: saline) was 101 % of control and 113 % of control.
CN(Cc1cnc2nc(N[Si](C)(C)C)nc(N[Si](C)(C)C)c2n1)c1ccc(C(=O)NC(CCC(=O)O[Si](C)(C)C)C(=O)O[Si](C)(C)C)cc1 (stereo not given) was tested, and the T/C (endpoint: median survival time, dose: 1.9 mg/kg/injection, schedule: Q04DX003 (ip), vehicle: saline) was 107 % of control, the T/C (endpoint: median survival time, dose: 3.8 mg/kg/injection, schedule: Q04DX003 (ip), vehicle: saline) was 121 % of control and the T/C (endpoint: median survival time, dose: 30.0 mg/kg/injection, schedule: Q04DX003 (ip), vehicle: saline) was 150 % of control. For the same compound, the T/C (endpoint: median survival time, dose: 60.0 mg/kg/injection, schedule: Q04DX003 (ip), vehicle: saline) was 157 % of control.
With CC1CC(C)/C(=N/NC(N)=S)C(C(O)CC2CC(=O)NC(=O)C2)C1 (stereo not given) the T/C [6] was 101 % of control, the T/C [7] was 100 % of control and the T/C (endpoint: mean survival time, dose: 100.0 mg/kg/injection, schedule: Q01DX009 (ip), vehicle: saline) was 105 % of control. The T/C [9] was 106 % of control and the T/C (endpoint: mean survival time, dose: 400.0 mg/kg/injection, schedule: Q01DX009 (ip), vehicle: saline) was 101 % of control.
CCCCCCCCN(C)/N=N/c1nc[nH]c1C(N)=O was tested, and the T/C [10] was 119 % of control, the T/C [8] was 121 % of control and the T/C [11] was 124 % of control. The T/C [12] was 118 % of control and the T/C (endpoint: median survival time, dose: 256.0 mg/kg/injection, schedule: Q01DX005 (ip), vehicle: saline with Tween-80) was 89 % of control.
With CCCCN(C)N=Nc1c(C(N)=O)n[nH]c1C the T/C [10] was 108 % of control, the T/C [8] was 112 % of control and the T/C [11] was 96 % of control.
In the case of O=[N+]([O-])O.[Ga], the T/C [4] is reported as 101 % of control, the T/C (endpoint: median survival time, dose: 64.0 mg/kg/injection, schedule: Q01DX005 (ip), vehicle: saline) is reported as 103 % of control and 107 % of control and the T/C (endpoint: median survival time, dose: 128.0 mg/kg/injection, schedule: Q01DX005 (ip), vehicle: saline) is reported as 102 % of control.
N[C@@H](Cc1ccc(N(CCCl)CCCl)cc1)C(=O)O was tested, and the T/C (endpoint: mean survival time, dose: 1.25 mg/kg/injection, schedule: Q01DX009 (ip), vehicle: saline) was 116 % of control and the T/C [13] was 120 % of control.
O=P1(NCCCl)OCCCN1CCCl (stereo not given) was tested, and the T/C (endpoint: median survival time, dose: 40.0 mg/kg/injection, schedule: Q01DX001 (ip), vehicle: saline) was 97 % of control, the T/C (endpoint: median survival time, dose: 80.0 mg/kg/injection, schedule: Q01DX001 (ip), vehicle: saline) was 102 % of control and the T/C (endpoint: median survival time, dose: 160.0 mg/kg/injection, schedule: Q01DX001 (ip), vehicle: saline) was 105 % of control. For the same compound, the T/C (endpoint: median survival time, dose: 320.0 mg/kg/injection, schedule: Q01DX001 (ip), vehicle: saline) was 113 % of control.
In the case of S=P(N1CC1)(N1CC1)N1CC1, the T/C (endpoint: mean survival time, dose: 0.25 mg/kg/injection, schedule: Q01DX009 (ip), vehicle: saline) is reported as 100 % of control and 104 % of control and 112 % of control, the T/C (endpoint: mean survival time, dose: 0.5 mg/kg/injection, schedule: Q01DX009 (ip), vehicle: saline) is reported as 102 % of control and 106 % of control (2×) and the T/C (endpoint: mean survival time, dose: 1.0 mg/kg/injection, schedule: Q01DX009 (ip), vehicle: saline) is reported as 104 % of control and 106 % of control and 114 % of control. The T/C (endpoint: mean survival time, dose: 2.0 mg/kg/injection, schedule: Q01DX009 (ip), vehicle: saline) was 124 % of control, the T/C (endpoint: mean survival time, dose: 4.0 mg/kg/injection, schedule: Q01DX009 (ip), vehicle: saline) was 158 % of control and 162 % of control and 168 % of control and the T/C (endpoint: mean survival time, dose: 8.0 mg/kg/injection, schedule: Q01DX009 (ip), vehicle: saline) was 86 % of control.
With Nc1nncs1 the T/C (endpoint: median survival time, dose: 7.5 mg/kg/injection, schedule: Q01DX009 (ip), vehicle: Klucel (hydroxypropylcellulose) (HPC)) was 113 % of control, the T/C (endpoint: median survival time, dose: 60.0 mg/kg/injection, schedule: Q01DX009 (ip), vehicle: Klucel (hydroxypropylcellulose) (HPC)) was 112 % of control and the T/C [11] was 118 % of control and 121 % of control and 116 % of control.
